# Tests used:
# dallisgrass = test: Test D dallisgrass; assay type: in vivo, Paspalum dilatatum; settings: Preemergence, 0 to 100 scale
# Outline: (§1)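 Weed seeds planted in sandy loam; species kept apart in individual pots or compartments. Preemergence tests: treatment to soil surface within one day. Greenhouse growth, then visual injury scoring at 14–21 days (0–100).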
# guineagrass = test: Test D guineagrass; assay type: in vivo, Panicum maximum; settings: Preemergence, 0 to 100 scale
# Outline: as §1
# large crabgrass = test: Test D large crabgrass; assay type: in vivo, Digitaria sanguinalis; settings: Preemergence, 0 to 100 scale
# Outline: as §1
# surinam grass = test: Test D surinam grass; assay type: in vivo, Brachiaria decumbens; settings: Preemergence, 0 to 100 scale
# Outline: as §1
# common groundsel = test: Test D common groundsel; assay type: in vivo, Senecio vulgaris; settings: Preemergence, 0 to 100 scale
# Outline: as §1
# Spanishneedles = test: Test D Spanishneedles; assay type: in vivo, Bidens bipinnata; settings: Preemergence, 0 to 100 scale
# Outline: as §1
# common pursiane = test: Test D common purslane; assay type: in vivo, Portulaca oleracea; settings: Preemergence, 0 to 100 scale
# Outline: as §1
# Johnson grass = test: Test D Johnson grass; assay type: in vivo, Sorghum halepense; settings: Preemergence, 0 to 100 scale
# Outline: as §1
# pitted morningglory = test: Test D pitted morningglory; assay type: in vivo, Ipomoea lacunosa; settings: Preemergence, 0 to 100 scale
# Outline: as §1
# Green foxtail [1] = test: Test D green foxtail; assay type: in vivo
# Outline: as §1
# Green foxtail [2] = test: Test D green foxtail; assay type: in vivo; settings: Preemergence, 0 to 100 scale
# Outline: as §1
# itchgrass = test: Test D itchgrass; assay type: in vivo, Rottboellia exaltata; settings: Preemergence, 0 to 100 scale
# Outline: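 Scoring used a 0–100 visual injury scale, with 0 meaning no effect and 100 complete control, assessed 14–21 days after application alongside untreated pots. Preemergence treatments went onto sandy loam surfaces of separately potted seeds within a day of sowing.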
# bermuda-grass = test: Test D bermudagrass; assay type: in vivo, Cynodon dactylon; settings: Preemergence, 0 to 100 scale
# Outline: as §1
# common ragweed = test: Test D common ragweed; assay type: in vivo, Ambrosia elatior; settings: Preemergence, 0 to 100 scale
# Outline: as §1
# sandbur = test: Test D sandbur; assay type: in vivo, Cenchrus echinatus; settings: Preemergence, 0 to 100 scale
# Outline: as §1
# [3] = Rate 16 g/ha, 0 no injury, 100 complete control
# [4] = Rate 32 g/ha, 0 no injury, 100 complete control
# [5] = Rate 64 g/ha, 0 no injury, 100 complete control
# [6] = Rate 125 g/ha, 0 no injury, 100 complete control
# [7] = Rate 64 g/ha, Preemergence; 0 to 100 scale, 0 no injury, 100 complete control
# [8] = Rate 125 g/ha, Preemergence; 0 to 100 scale, 0 no injury, 100 complete control
structure (smiles),measurement,setting,value
CC(C)N(C(=O)n1oc(=O)n(Cc2cccs2)c1=O)c1ccccc1 [Compound 103],"Plant response rating, Dallisgrass",dallisgrass; [3],10
same,"Plant response rating, Dallisgrass",dallisgrass; [4],20
same,"Plant response rating, Dallisgrass",dallisgrass; [5],45
same,"Plant response rating, Dallisgrass",dallisgrass; [6],65
same,"Plant response rating, Dallisgrass",dallisgrass; Rate 250 g/ha,98
same,"Plant response rating, Dallisgrass",dallisgrass; Rate 500 g/ha,100
same,"Plant response rating, Guineagrass",guineagrass; [3],0
same,"Plant response rating, Guineagrass",guineagrass; [4],0
same,"Plant response rating, Guineagrass",guineagrass; [5],0
same,"Plant response rating, Guineagrass",guineagrass; [6],85
same,"Plant response rating, Guineagrass",guineagrass; Rate 250 g/ha,90
same,"Plant response rating, Guineagrass",guineagrass; Rate 500 g/ha,100
same,"Plant response rating, Large crabgrass",large crabgrass; [3],0
same,"Plant response rating, Large crabgrass",large crabgrass; [4],0
same,"Plant response rating, Large crabgrass",large crabgrass; [5],85
same,"Plant response rating, Large crabgrass",large crabgrass; [6],95
same,"Plant response rating, Large crabgrass",large crabgrass; Rate 250 g/ha,98
same,"Plant response rating, Large crabgrass",large crabgrass; Rate 500 g/ha,100
same,"Plant response rating, Surinam grass",surinam grass; [3],0
same,"Plant response rating, Surinam grass",surinam grass; [4],0
same,Surinam grass plant response rating,surinam grass; [5],0
same,Surinam grass plant response rating,surinam grass; [6],0
same,"Plant response rating, Surinam grass",surinam grass; Rate 250 g/ha,0
same,"Plant response rating, Surinam grass",surinam grass; Rate 500 g/ha,40
same,"Plant response rating, Com. groundsel",common groundsel; [3],0
same,"Plant response rating, Com. groundsel",common groundsel; [4],0
same,"Plant response rating, Com. groundsel",common groundsel; [5],0
same,"Plant response rating, Com. groundsel",common groundsel; [6],0
same,"Plant response rating, Com. groundsel",common groundsel; Rate 250 g/ha,0
same,"Plant response rating, Com. groundsel",common groundsel; Rate 500 g/ha,0
same,"Plant response rating, Spanishneedles",Spanishneedles; [3],0
same,"Plant response rating, Spanishneedles",Spanishneedles; [4],0
same,Spanishneedles plant response rating,Spanishneedles; [5],0
same,Spanishneedles plant response rating,Spanishneedles; [6],0
same,"Plant response rating, Spanishneedles",Spanishneedles; Rate 500 g/ha,20
same,"Plant response rating, C. purslane",common pursiane; [3],0
same,"Plant response rating, C. purslane",common pursiane; [4],0
same,"Plant response rating, C. purslane",common pursiane; [5],0
same,"Plant response rating, C. purslane",common pursiane; [6],0
same,"Plant response rating, C. purslane",common pursiane; Rate 250 g/ha,0
same,"Plant response rating, C. purslane",common pursiane; Rate 500 g/ha,0
same,"Plant response rating, Johnsongrass",Johnson grass; [3],0
same,"Plant response rating, Johnsongrass",Johnson grass; [4],0
same,"Plant response rating, Johnsongrass",Johnson grass; [5],0
same,"Plant response rating, Johnsongrass",Johnson grass; [6],0
same,"Plant response rating, Johnsongrass",Johnson grass; Rate 250 g/ha,0
same,"Plant response rating, Johnsongrass",Johnson grass; Rate 500 g/ha,40
same,"Plant response rating, P. morninglory",pitted morningglory; [3],0
same,"Plant response rating, P. morninglory",pitted morningglory; [4],0
same,"Plant response rating, P. morninglory",pitted morningglory; [5],0
same,"Plant response rating, P. morninglory",pitted morningglory; [6],0
same,"Plant response rating, P. morninglory",pitted morningglory; Rate 250 g/ha,0
same,"Plant response rating, P. morninglory",pitted morningglory; Rate 500 g/ha,0
same,"Plant response rating, Green foxtail","Green foxtail [1]; Preemergence; Rate 16 g/ha; 0 to 100 scale, 0 no injury, 100 complete control",0
same,"Plant response rating, Green foxtail","Green foxtail [1]; Preemergence; Rate 32 g/ha; 0 to 100 scale, 0 no injury, 100 complete control",0
same,"Plant response rating, Green foxtail","Green foxtail [1]; Rate 16 g/ha; Preemergence; 0 to 100 scale, 0 no injury, 100 complete control",0
same,"Plant response rating, Green foxtail","Green foxtail [1]; Rate 32 g/ha; Preemergence; 0 to 100 scale, 0 no injury, 100 complete control",85
same,Green foxtail plant response rating,Green foxtail [1]; [7],50
same,"Plant response rating, Green foxtail",Green foxtail [1]; [7],50
same,Green foxtail plant response rating,Green foxtail [1]; [8],100
same,"Plant response rating, Green foxtail",Green foxtail [1]; [8],100
same,"Plant response rating, Green foxtail",Green foxtail [1]; Rate 250 g/ha; Preemergence; 0 to 100 scale,100
same,"Plant response rating, Green foxtail","Green foxtail [1]; Rate 500 g/ha, Preemergence; 0 to 100 scale",100
same,"Plant response rating, Green foxtail",Green foxtail [2]; Rate 250 g/ha,100
same,"Plant response rating, Green foxtail",Green foxtail [2]; Rate 500 g/ha,100
same,"Plant response rating, Itchgrass",itchgrass; [3],0
same,"Plant response rating, Itchgrass",itchgrass; [4],0
same,"Plant response rating, Itchgrass",itchgrass; [5],0
same,"Plant response rating, Itchgrass",itchgrass; [6],0
same,"Plant response rating, Itchgrass",itchgrass; Rate 250 g/ha,0
same,"Plant response rating, Itchgrass",itchgrass; Rate 500 g/ha,0
same,"Plant response rating, Bermudagrass",bermuda-grass; [3],30
same,"Plant response rating, Bermudagrass",bermuda-grass; [4],30
same,"Plant response rating, Bermudagrass",bermuda-grass; [5],60
same,"Plant response rating, Bermudagrass",bermuda-grass; [6],80
same,"Plant response rating, Bermudagrass",bermuda-grass; Rate 250 g/ha,100
same,"Plant response rating, Bermudagrass",bermuda-grass; Rate 500 g/ha,100
same,"Plant response rating, C. ragweed",common ragweed; [3],0
same,"Plant response rating, C. ragweed",common ragweed; [4],0
same,"Plant response rating, C. ragweed",common ragweed; [5],0
same,"Plant response rating, C. ragweed",common ragweed; [6],0
same,"Plant response rating, C. ragweed",common ragweed; Rate 250 g/ha,0
same,"Plant response rating, C. ragweed",common ragweed; Rate 500 g/ha,0
same,"Plant response rating, Sandbur",sandbur; [3],0
same,"Plant response rating, Sandbur",sandbur; [4],0
same,Sandbur plant response rating,sandbur; [5],0
same,Sandbur plant response rating,sandbur; [6],0
same,"Plant response rating, Sandbur",sandbur; Rate 250 g/ha,75
same,"Plant response rating, Sandbur",sandbur; Rate 500 g/ha,100
